Laboratory results: patent publication EP0059817A1, “Serpentine, alstonine and sempervirine drugs for the specific inhibition of tumurous and cancerous cells” (priority 1981, dated 1982)
Read-outs that look alike come from different tables or passages of the source.

Key:
[1] = system: lymphome YC 8; experiment: lymphoma YC 8 of the mouse, alstonine and cyclophosphamide; format: in vivo, souris BALB C; settings: for survie (surviving mice/total): i.p., alstonine 400 µg par jour, 8 days from day 3, mixture with 2 mg cyclophosphamide
[2] = system: Ascite d'Ehrlich; experiment: Ehrlich ascites tumour in the mouse, serpentine, alstonine, cyclophosphamide; format: in vivo, souris blanches Swiss; settings: for survie (surviving mice/total): I.P., serpentine 400 µg par jour, cyclophosphamide 2 ma par jour; for definitive arrest of the Ehrlich ascites tumour (in words): each substance alone, treatment from day 4 or 5 for 10 to 15 days; for évolution de la tumeur d'Ehrlich (figure, weight of mice against days of treatment): voie intrapéritonéale, doses as above, curves 2, 3, 4
Excerpt: Activité vis-à-vis des tumeurs "Ascite d'Ehrlich" chez la souris - 5 x 10^3 cellules Ascite d'Ehrlich sont inoculées à des souris blanches Swiss de 20-24 g, par voie intrapéritonéale.
Divers traitements furent appliqués dès le quatrième ou le cinquième jour et pendant dix à quinze jours. […] Un net ralentissement du développement des tumeurs est observé, mais les tumeurs repartent après arrêt du traitement dans le cas du cyclophosphamide seul, le redémarrage peut être plus tardif qu'avec la serpentine ou l'alstonine. Par contre, l'association de serpentine (400 µg par jour) et de cyclophosphamide (2 ma par jour) par voie I.P. permet d'obtenir une survie définitive (survie définitive : survie normale pendant trois mois sans perte de poids) et le pourcentage des survivants varie de 80 à 100% (Tableau IV ci-après). Les souris ainsi guéries augmentent normalement de poids et après quatre à six mois celui-ci est de 24-26 g. Leur aspect est absolument normal et rien ne les distingue de souris saines. (Dans les expériences, seule la survie sans récidive est prise en considération).
La figurer, où sont portés en abscisses le nombre de jours de traitement et en ordonnées le poids (en gramme) des souris, montre l'évolution de la tumeur d'Ehrlich chez les souris traitées, soit par la serpentine seule (courbe 2), soit par le cyclophosphamide seul (courbe 3), soit par la serpentine + cyclophosphamide (courbe 4) par voie intra- péritonéale et aux doses indiquées ci-dessus. […] Aucun de ces deux traitements ne permet d'obtenir une survie.définitive. Par contre, le mélange de serpentine et de cyclophosphamide permet d'obtenir une survie définitive.

[3] = system: Cellules primaires de reins de singe; experiment: cell culture cytotoxicity, normal cells; format: cell-based; settings: 200 µg/ml; en culture de 7 jours dès l'ensemencement
Procedure: Des cultures de cellules saines (cellules primaires de reins de singe, cellules de lignée "Vero" et "SIRC") et des cultures de cellules cancéreuses (cellules K.B., cellules Hela, cellules Hep II et cellules L)ont reçu une dose de 200 Mg, soit de serpentine, soit d'alstonine, soit de sempervirine, par ml de culture.
(§1) L'effet cytotoxique spécifique, vis-à-vis des cellules tumorales utilisées, ne s'est jamais démenti au cours des très nombreuses expériences effectuées. Par contre, pour effectuer les cellules saines il a fallu des quantités d'alcaloides au moins dix fois plus grandes (plus de 2 mg/ml). (Les cultures de cellules in-vitro sans mycoplàsmes ont été effectuées dans les conditions classiques et en l'absence d'antibiotique qui pourraient fausser les résultats).
(§2) Les cellules cancéreuses et saines utilisées ne contenaient pas de mycoplasmes et le milieu de culture ne contenait pas d'antibiotique, ces derniers pouvant sensibiliser les cellules et par conséquent fausser les résultats.

[4] = system: Cellules K.B.; experiment: cell culture cytotoxicity, cancer cells; format: cell-based; settings: 200 µg/ml; en culture de 3 jours dès l'ensemencement
Procedure: as §1, §2

[5] = system: tumeur MS 301; experiment: transplantable mammary cancer of the mouse; format: in vivo, souris de souche Rh0 III; settings: 400 ^gg at the tumour implantation site, twice a day for 15 days from day 3; n=10; p : 0,01
Excerpt: Action sur le cancer mammaire greffable de la souris • - Vingt souris de 18 à 20g, de souche Rh0 III ont été inoculées, par voie sous-cutanée, par 0,8 " d'un extrait de tumeur MS 301, broyé. Dix souris ont été gardées comme témoins; dix autres vaient, le troisième jour après l'inoculation, 400 ^gg d'alstonine au niveau de l'implantation tumorale, deux fois par jour, pendant quinze- jours. Au seizième jour, les souris étaient anesthésiées et sacrifiées, les tumeurs excisées et pesées. • - La même expérience fut effectuée avec la serpentine au lieu d'alstonine.

[6] = system: virus de la grippe; format: in vivo, souris SWISS; settings: for activity against influenza compared with sempervirine: doses comparables; for survie (surviving mice/total): 200 µg i.p. twice a day, 8 days
[7] = system: Ascite d'Ehrlich; experiment: Ehrlich ascites tumour in the mouse, serpentine, alstonine, cyclophosphamide; format: in vivo, souris blanches Swiss; settings: voie sous-cutanée, doses as above
[8] = system: cellules saines; experiment: cell culture cytotoxicity, healthy cells as a group; format: cell-based; settings: 200 Mg par ml de culture; au bout de huit jours d'observation; reins de singe, Vero, SIRC
Procedure: as §1, §2

[9] = system: cellules cancéreuses; experiment: cell culture cytotoxicity, cancer cells as a group; format: cell-based; settings: 200 Mg par ml de culture; en 24 à 48 heures; K.B., Hela, Hep II, L
Procedure: as §1, §2

[10] = system: lymphome YC 8; experiment: lymphoma YC 8 of the mouse, sempervirine; format: in vivo, souris BALB c; settings: for survie (surviving mice/total): 10 days from day 2
Excerpt: 34 souris BALB c de 17-20 g sont inoculées par voie intra- péritonéale par […] ascitiques du lymphome YC 8 de la souris fraîchement prélevées et dix souris sont gardées comme témoins.
24 souris sont traitées le deuxième jour après inoculation par la sempervirine dissoute en milieu tamponné (pH 7,65) à raison de deux fois par jour par voie intrapéritonéale (300 µ g par jour) et pendant 10 jours consécutifs.
Les résultats sont présentés dans le tableau IX ci-après et illustrent la survie pendant trois mois des animaux traités. (Une survie de plusieurs jours n'est pas prise en considération).

[11] = system: Ascite d'Ehrlich; experiment: Ehrlich ascites tumour in the mouse, sempervirine; format: in vivo, souris BALB c; settings: for survie (surviving mice/total): i.p. 300 µg par jour in two doses, 10 days from day 2
Excerpt: Les résultats sont présentés dans le tableau X ci-après et illustrent la survie des animaux pendant trois mois, une survie de plusieurs jours n'étant pas prise en considération.

[12] = system: virus de la vaccine; parameters: species or system lapin; settings: in vivo
[13] = system: cancers du sein; experiment: clinical trials in humans, breast cancer cases; format: in vivo, humains
Excerpt: Toutefois, on a pu constater au cours des essais cliniques sur l'humain que les β-carbolines quaternaires avaient une demi-vie trop courte pour être administrée sous forme galénique mais que, de façon surprenante, on obtenait d'excellents résultats dans le traitement des cancers chez les humains en utilisant une nouvelle forme galénique constituée de microgranules à libération prolongée des p-carbolines quaternaires. Ces microgranules comprennent une âme neutre constituée d'un grain excipient inerte par exemple un ou plusieurs constituants tels que le sacchorose, l'amidon, le talc, la silice désséchante, le lactose et l'acide stéarique, le grain neutre étant muni d'une première couche comprenant la β-carboline quaternaire puis d'une seconde couche extérieure constituée par une enveloppe microporeuse comprenant au moins un polymère naturel et/ou synthétique appartenant à la classe constituée par la gomme laque, la qomme arabique, la gélatine, l'éthylcellulose, l'acétophtalate d2 cellulose, le triacétate de cellulose, le polyoxyéthylèneglycol, les méthacrylates, le copolymère styrène-acrylonitrile et la polyvinylpyrrolidone.
A titre d'exemple, on a reproduit ci-après trois cas significatifs relatifs à.des cancers du sein et pour lesquels on a utilisée la serpentine préparéeselon la nouvelle forme galénique objet de l'invention décrite ci-dessus.

With O=P1(N(CCCl)CCCl)NCCCO1 (centres unmarked) [cyclophosphamide] the “outcome with cyclophosphamide alone (in words)” value ([1]; cyclophosphamide seul) was “après 1-3 mois, l'amaigrissement est tel qu'elles meurent”, the “amaigrissement of the treated mouse” value ([2]; cyclophosphamide seul, i.p.) was “amaigrissement très fort” and the “survie (surviving mice/total)” value ([2]; day 0) was 6/6. The “survie (surviving mice/total)” value ([2]; day 25) was 6/6, the “survie (surviving mice/total)” value ([2]; day 35) was 6/6 and the “survie (surviving mice/total)” value ([2]; day 60) was 2/6. The “survie (surviving mice/total)” value ([2]; day 120) was 0/6, the “definitive arrest of the Ehrlich ascites tumour (in words)” value (“definitive arrest” below) [2] was “ne peuvent définitivement arrêter la tumeur ascitique d'Ehrlich” and the “évolution de la tumeur d'Ehrlich (figure, weight of mice against days of treatment)” value [2] was “net ralentissement du poids des tumeurs”.

For COC(=O)C1=CO[C@@H](C)[C@@H]2Cn3ccc4c5ccccc5nc-4c3C[C@H]12 [alstonine], the destruction des cellules [3] was “Pas de destruction pendant 8 jours”, the destruction des cellules [4] was “Destruction totale en 24-48 heures” and the “POIDS MOYEN (en grammes) DES TUMEURS, AU 16è JOUR” value [5] was 1,7 (compris entre 0,8 et 2,6) grammes. The “survie (in words)” value ([1]; alstonine seule, same doses, voie sous-cutanée) was “ne survivent pas plus longtemps que les souris témoins”, the “survie (surviving mice/total)” value ([1]; day 0) was 10/10 and the “survie (surviving mice/total)” value ([1]; day 22) was 7/10. The “survie (surviving mice/total)” value ([1]; day 60) was 4/10, the “survie (surviving mice/total)” value ([1]; day 90) was 4/10 and the “definitive arrest” value [2] was “ne peuvent définitivement arrêter la tumeur ascitique d'Ehrlich”. For the same compound, the “activity against influenza compared with sempervirine” value [6] was “résultats tout à fait comparables” and the “survie and tumour evolution (in words)” value [7] was “sans effet sur la survie définitive des souris”.

For c1ccc2c3ccn4cc5c(cc4c-3nc2c1)CCCC5 [sempervirine], the destruction des cellules [3] was “Pas de destruction pendant 8 jours”, the destruction des cellules [4] was “Destruction totale en 24-48 heures” and the “destruction des cellules saines” value [8] was “aucune destruction des cellules saines”. The “destruction des cellules cancéreuses” value [9] was “toutes les cellules cancéreuses étaient détruites”, the “survie (surviving mice/total)” value ([10]; day 0, i.p. 300 µg par jour in two doses) was 24/24 and the “survie (surviving mice/total)” value ([10]; day 20, i.p. 300 µ g par jour in two doses) was 24/24. For the same compound, the “survie (surviving mice/total)” value ([10]; day 60, i.p. 300 µg par jour in two doses) was 20/24, the “survie (surviving mice/total)” value ([10]; day 90, i.p. 300 µg par jour in two doses) was 20/24 and the “state of the surviving mice” value ([10]; i.p. treated survivors, kept more than three months) was “tout à fait normales”. For the same compound, the “survie (in words)” value ([10]; voie sous-cutanée) was “ne survivent pas très longtemps après les souris témoins”, the “survie (surviving mice/total)” value ([11]; day 0) was 20/20 and the “survie (surviving mice/total)” value ([11]; day 21) was 15/20. For the same compound, the “survie (surviving mice/total)” value ([11]; day 60) was 10/20, the “survie (surviving mice/total)” value ([11]; day 90) was 10/20 and the “guérison définitive, proportion of mice” value ([11]; sempervirine seule, same results in souris blanches SWISS) was about 50%. The appearance of papules [12] was “non apparition de papules ou apparition de papules dont la tailla est considérablement diminuée”, the “lung lobes affected by the virus (congestion)” value ([6]; […], in controls half of the lobes affected) was 0 ou 1 lobe par poumon atteint and the “survie (surviving mice/total)” value ([6]; day 0, Groupe B: treated from inoculation) was 10/10. The “survie (surviving mice/total)” value ([6]; day 0, Groupe C: treated from 24 h after inoculation) was 10/10, the “survie (surviving mice/total)” value ([6]; day 10, Groupe B: treated from inoculation) was 10/10 and the “survie (surviving mice/total)” value ([6]; day 10, Groupe C: treated from 24 h after inoculation) was 10/10. For the same compound, the “survie (surviving mice/total)” value ([6]; day 16, Groupe B: treated from inoculation) was 8/10 and the “survie (surviving mice/total)” value ([6]; day 16, Groupe C: treated from 24 h after inoculation) was 6/10.

In the case of COC(=O)C1=CO[C@@H](C)[C@H]2Cn3ccc4c5ccccc5nc-4c3C[C@H]12 [serpentine], the destruction des cellules [3] was “Pas de destruction pendant 8 jours”, the destruction des cellules [4] was “Destruction totale en 24-48 heures” and the “destruction des cellules saines” value [8] was “aucune destruction des cellules saines”. For the same compound, the “destruction des cellules cancéreuses” value [9] was “toutes les cellules cancéreuses étaient détruites”, the “POIDS MOYEN (en grammes) DES TUMEURS, AU 16è JOUR” value [5] was 1,6 (compris entre 0,9 et 2,5) grammes and the “survie (surviving mice/total)” value ([2]; day 0) was 10/10. The “survie (surviving mice/total)” value ([2]; day 25) was 10/10, the “survie (surviving mice/total)” value ([2]; day 35) was 0/10 and the “definitive arrest” value [2] was “ne peuvent définitivement arrêter la tumeur ascitique d'Ehrlich”. The “évolution de la tumeur d'Ehrlich (figure, weight of mice against days of treatment)” value [2] was “net ralentissement du poids des tumeurs”, the “activity against influenza compared with sempervirine” value [6] was “résultats tout à fait comparables” and the “clinical outcome, case 1 (Madame M.)” value ([13]; after one month, 100mg en microgranules par jour per os in two doses, after irradiation) was “régression des deux tumeurs”. The “clinical outcome, case 3 (Madame L.)” value ([13]; bone metastases, sustained-release microgranules, 6 months of treatment) was “La fracture du col du fémur se consolide ainsi que disparait la métastase calcanéenne”, the “clinical outcome, case 1 (Madame M.)” value ([13]; during 6 months of treatment, 100mg en microgranules par jour per os) was “la tumeur du sein diminue et disparait alors que le squirrhe lui-même régresse considérablement” and the “clinical outcome, case 2 (Madame P.)” value ([13]; three months, microgranules 100 mg par jour per os in two doses, after radiotherapy and local excision) was “la douleur qui persistait après l'intervention disparait progressivement et le sein prend un aspect normal et indolore”. For the same compound, the “survie and tumour evolution (in words)” value [7] was “sans effet sur la survie définitive des souris”.
